Data published in patent publication EP0908457B1, “3-(1,2-benzisothiazol- and isoxazol-5-Y1)-2,4(1H,3H)-pyrimidinedione or thione and 3-(1,2-benzisothiazol- and isoxazol-5-y1)-4(3H)-pyrimidinone or thione herbicidal agents” (BASF AKTIENGESELLSCHAFT, priority 1997, dated 1999).

How the values were obtained:
[1] = tested on: Monochoria vaginalis, Presl.; experiment: Preemergence weed control under flooded paddy conditions, MOOVA (Monochoria); type: in vivo; settings: flooded paddy, rated three to four weeks after treatment; for MOOVA herbicidal effect rating: preemergence; for herbicidal effect rating, MOOVA: preemergence weeds; on herbicidal effect rating, MOOVA: meaning of each grade not given here
Sagittaria pygmaea, L. = experiment: Preemergence weed control under flooded paddy conditions, SAGPY (Arrowhead (Pygmaea)); type: in vivo; settings: flooded paddy, rated three to four weeks after treatment; for SAGPY herbicidal effect rating: preemergence; for herbicidal effect rating, SAGPY: preemergence weeds; on herbicidal effect rating, SAGPY: meaning of each grade not given here
[2] = tested on: Echinochloa oryzoides (Ard.) Fritsch.; experiment: Preemergence weed control under flooded paddy conditions, ECHORC (Watergrass (Calif.)); type: in vivo; settings: flooded paddy, rated three to four weeks after treatment; for ECHORC herbicidal effect rating: preemergence; for herbicidal effect rating, ECHORC: preemergence weeds; on herbicidal effect rating, ECHORC: meaning of each grade not given here
Cyperus iria = experiment: Preemergence weed control under flooded paddy conditions, CYPIR (Rice Flatsedge); type: in vivo; settings: flooded paddy, rated three to four weeks after treatment; for CYPIR herbicidal effect rating: preemergence; for herbicidal effect rating, CYPIR: preemergence weeds; on herbicidal effect rating, CYPIR: meaning of each grade not given here
[3] = tested on: Oryza sativa, (L.) Tebonnet; experiment: Rice tolerance to post-transplant applications under flooded paddy conditions (Example 187), ORYSAT (Rice, Tebonnet); settings: rated three to four weeks after treatment

| Compound | MOOVA herbicidal effect rating ([1]; Rate 0.0620 kg/ha) | MOOVA herbicidal effect rating ([1]; Rate 0.1250 kg/ha) | MOOVA herbicidal effect rating ([1]; Rate 0.2500 kg/ha) | SAGPY herbicidal effect rating (Sagittaria pygmaea, L.; Rate 0.0620 kg/ha) | SAGPY herbicidal effect rating (Sagittaria pygmaea, L.; Rate 0.1250 kg/ha) | SAGPY herbicidal effect rating (Sagittaria pygmaea, L.; Rate 0.2500 kg/ha) | ECHORC herbicidal effect rating ([2]; Rate 0.0620 kg/ha) | ECHORC herbicidal effect rating ([2]; Rate 0.1250 kg/ha) | ECHORC herbicidal effect rating ([2]; Rate 0.2500 kg/ha) | CYPIR herbicidal effect rating (Cyperus iria; Rate 0.0620 kg/ha) | CYPIR herbicidal effect rating (Cyperus iria; Rate 0.1250 kg/ha) | CYPIR herbicidal effect rating (Cyperus iria; Rate 0.2500 kg/ha) | ORYSAT herbicidal effect rating ([3]; Rate 0.0620 kg/ha) | ORYSAT herbicidal effect rating ([3]; Rate 0.1250 kg/ha) | ORYSAT herbicidal effect rating ([3]; Rate 0.2500 kg/ha) | herbicidal effect rating, MOOVA ([1]; Rate 0.0320 kg/ha) | herbicidal effect rating, MOOVA ([1]; Rate 0.0620 kg/ha) | herbicidal effect rating, MOOVA ([1]; Rate 0.1250 kg/ha) | herbicidal effect rating, MOOVA ([1]; Rate 0.2500 kg/ha) | herbicidal effect rating, SAGPY (Sagittaria pygmaea, L.; Rate 0.0320 kg/ha) | further results |
| --- | --- | --- | --- | --- | --- | --- | --- | --- | --- | --- | --- | --- | --- | --- | --- | --- | --- | --- | --- | --- | --- |
| CNC.Cn1c(C(F)(F)F)cc(=O)n(-c2ccc3snc(COCC(=O)NS(C)(=O)=O)c3c2)c1=O [Example 295, Acetamide, 2-{{5-[3,6-dihydro-3-methyl-2,6-dioxo-4-(trifluoromethyl)-1(2H)-pyrimidinyl]-1,2-benzisothiazol-3-yl}methoxy}-N-(methylsulfonyl)-, dimethylamine salt] | 0.0 | 9.0 | 9.0 | 0.0 | 0.0 | 6.0 | 0.0 | 0.0 | 0.0 | 0.0 | 9.0 | 9.0 | 0.0 | 0.0 | 0.0 | – | – | – | – | – | – |
| CNC.Cn1c(C(F)(F)F)cc(=O)n(-c2ccc3snc(COCC(=O)O)c3c2)c1=O [Example 296, Acetic acid, {{5-[3,6-dihydro-3-methyl-2,6-dioxo-4-(trifluoromethyl)-1(2H)-pyrimidinyl]-1,2-benzisothiazol-3-yl}methoxy}-, dimethylamine salt] | 9.0 | 9.0 | 9.0 | 0.0 | 5.0 | 7.0 | 0.0 | 2.0 | 4.0 | 7.0 | 7.0 | 7.0 | 0.0 | 0.0 | 2.0 | – | – | – | – | – | MOOVA herbicidal effect rating ([1]; Rate 0.0320 kg/ha): 9.0; SAGPY herbicidal effect rating (Sagittaria pygmaea, L.; Rate 0.0320 kg/ha): 0.0; ECHORC herbicidal effect rating ([2]; Rate 0.0320 kg/ha): 0.0; CYPIR herbicidal effect rating (Cyperus iria; Rate 0.0320 kg/ha): 6.0; ORYSAT herbicidal effect rating ([3]; Rate 0.0320 kg/ha): 0.0 |
| Cn1c(C(F)(F)F)cc(=O)n(-c2ccc3snc(CSCC(=O)NS(C)(=O)=O)c3c2)c1=O [Example 297, Acetamide, 2-{{{5-[3,6-dihydro-3-methyl-2,6-dioxo-4-(trifluoromethyl)-1(2H)-pyrimidinyl]-1,2-benzisothiazol-3-yl}methyl}thio}-N-(methylsulfonyl)-] | – | – | – | – | – | – | – | – | – | – | – | – | – | – | – | 9.0 | 9.0 | 9.0 | 9.0 | 0.0 | herbicidal effect rating, SAGPY (Sagittaria pygmaea, L.; Rate 0.0620 kg/ha): 0.0; herbicidal effect rating, SAGPY (Sagittaria pygmaea, L.; Rate 0.1250 kg/ha): 3.0; herbicidal effect rating, SAGPY (Sagittaria pygmaea, L.; Rate 0.2500 kg/ha): 9.0; herbicidal effect rating, ECHORC ([2]; Rate 0.0320 kg/ha): 0.0; herbicidal effect rating, ECHORC ([2]; Rate 0.0620 kg/ha): 0.0; herbicidal effect rating, ECHORC ([2]; Rate 0.1250 kg/ha): 3.0; herbicidal effect rating, ECHORC ([2]; Rate 0.2500 kg/ha): 4.0; herbicidal effect rating, CYPIR (Cyperus iria; Rate 0.0320 kg/ha): 4.0; herbicidal effect rating, CYPIR (Cyperus iria; Rate 0.0620 kg/ha): 5.0; herbicidal effect rating, CYPIR (Cyperus iria; Rate 0.1250 kg/ha): 7.0; herbicidal effect rating, CYPIR (Cyperus iria; Rate 0.2500 kg/ha): 9.0; herbicidal effect rating ORYSAT ([3]; Rate 0.0320 kg/ha): 0.0; herbicidal effect rating ORYSAT ([3]; Rate 0.0620 kg/ha): 0.0; herbicidal effect rating ORYSAT ([3]; Rate 0.1250 kg/ha): 0.0; herbicidal effect rating ORYSAT ([3]; Rate 0.2500 kg/ha): 2.0 |
| CNC.Cn1c(C(F)(F)F)cc(=O)n(-c2ccc3snc(CSCC(=O)NS(C)(=O)=O)c3c2)c1=O [Example 298, Acetamide, 2-{{{5-[3,6-dihydro-3-methyl-2,6-dioxo-4-(trifluoromethyl)-1(2H)-pyrimidinyl]-1,2-benzisothiazol-3-yl}methyl}thio}-N-(methylsulfonyl)-, dimethylamine salt] | – | – | – | – | – | – | – | – | – | – | – | – | – | – | – | 9.0 | 9.0 | 9.0 | 9.0 | 0.0 | herbicidal effect rating, SAGPY (Sagittaria pygmaea, L.; Rate 0.0620 kg/ha): 0.0; herbicidal effect rating, SAGPY (Sagittaria pygmaea, L.; Rate 0.1250 kg/ha): 3.0; herbicidal effect rating, SAGPY (Sagittaria pygmaea, L.; Rate 0.2500 kg/ha): 9.0; herbicidal effect rating, ECHORC ([2]; Rate 0.0320 kg/ha): 0.0; herbicidal effect rating, ECHORC ([2]; Rate 0.0620 kg/ha): 0.0; herbicidal effect rating, ECHORC ([2]; Rate 0.1250 kg/ha): 0.0; herbicidal effect rating, ECHORC ([2]; Rate 0.2500 kg/ha): 3.0; herbicidal effect rating, CYPIR (Cyperus iria; Rate 0.0320 kg/ha): 3.0; herbicidal effect rating, CYPIR (Cyperus iria; Rate 0.0620 kg/ha): 9.0; herbicidal effect rating, CYPIR (Cyperus iria; Rate 0.1250 kg/ha): 9.0; herbicidal effect rating, CYPIR (Cyperus iria; Rate 0.2500 kg/ha): 9.0; herbicidal effect rating ORYSAT ([3]; Rate 0.0320 kg/ha): 0.0; herbicidal effect rating ORYSAT ([3]; Rate 0.0620 kg/ha): 0.0; herbicidal effect rating ORYSAT ([3]; Rate 0.1250 kg/ha): 0.0; herbicidal effect rating ORYSAT ([3]; Rate 0.2500 kg/ha): 0.0 |
